Measured values: ChEMBL document CHEMBL1201862, “PubChem BioAssay data set” (2004)
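1) Cells in 96-well plates. 2) Compound, 48 h, 5 concentrations. 3) Linear interpolation between surrounding doses. 4) Unreached endpoint = highest concentration. Abbreviation: GI50, concentration required for 50% inhibition of growth.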 The source made the active and inactive calls. Rule as the data show it: active = GI50 up to about 1.1 µM and inactive = higher.

Columns and labels:
Assay in all cases: NCI-60 cell line screen, 48 h
786-0 = tested on: 786-0
A498 = tested on: A498
A549 = tested on: A549
ACHN = tested on: ACHN
CAKI-1 = tested on: CAKI-1
CCRF-CEM = tested on: CCRF-CEM
COLO 205 = tested on: COLO 205
DU-145 = tested on: DU-145
EKVX = tested on: EKVX
HCC 2998 = tested on: HCC 2998
HCT-116 = tested on: HCT-116
HCT-15 = tested on: HCT-15
HOP-62 = tested on: HOP-62
HOP-92 = tested on: HOP-92
HT-29 = tested on: HT-29
Hs-578T = tested on: Hs-578T
IGROV-1 = tested on: IGROV-1
K562 = tested on: K562
KM12 = tested on: KM12
LOX IMVI = tested on: LOX IMVI
M14 = tested on: M14
MDA-MB-231 = tested on: MDA-MB-231
MDA-MB-435 = tested on: MDA-MB-435
MDA-N = tested on: MDA-N
MOLT-4 = tested on: MOLT-4
Malme-3M = tested on: Malme-3M
NCI-H226 = tested on: NCI-H226
NCI-H23 = tested on: NCI-H23
NCI-H460 = tested on: NCI-H460
NCI-H522 = tested on: NCI-H522
NCI/ADR-RES = tested on: NCI/ADR-RES
OVCAR-3 = tested on: OVCAR-3
OVCAR-4 = tested on: OVCAR-4
OVCAR-5 = tested on: OVCAR-5
OVCAR-8 = tested on: OVCAR-8
PC-3 = tested on: PC-3
RPMI-8226 = tested on: RPMI-8226
RXF 393 = tested on: RXF 393
SF-268 = tested on: SF-268
SF-295 = tested on: SF-295
SF-539 = tested on: SF-539
SK-MEL-28 = tested on: SK-MEL-28
SK-MEL-2 = tested on: SK-MEL-2
SK-MEL-5 = tested on: SK-MEL-5
SK-OV-3 = tested on: SK-OV-3
SN12C = tested on: SN12C
SNB-19 = tested on: SNB-19
SNB-75 = tested on: SNB-75
SR = tested on: SR
SW-620 = tested on: SW-620
T47D = tested on: T47D
TK-10 = tested on: TK-10
U-251 = tested on: U-251
UACC-257 = tested on: UACC-257
UACC-62 = tested on: UACC-62
UO-31 = tested on: UO-31
HL-60 = tested on: HL-60
MCF7 = tested on: MCF7

In the case of CCCCCCCCCCCCCCCCOP(=O)(O)OCC(N)C(=O)O (stereo unspecified), the GI50 (786-0) was 21.5 µM (inactive), the GI50 (A498) was 19.8 µM (inactive) and the GI50 (A549) was 21.9 µM (inactive). For the same compound, the GI50 (ACHN) was 16.3 µM (inactive), the GI50 (CAKI-1) was 13 µM (inactive) and the GI50 (CCRF-CEM) was 22.8 µM (inactive). For the same compound, the GI50 (COLO 205) was 20.7 µM (inactive), the GI50 (DU-145) was 87.3 µM (inactive) and the GI50 (EKVX) was 54.1 µM (inactive). For the same compound, the GI50 (HCC 2998) was 15.1 µM (inactive), the GI50 (HCT-116) was 12.5 µM (inactive) and the GI50 (HCT-15) was 27.7 µM. For the same compound, the GI50 (HOP-62) was 25 µM (inactive), the GI50 (HOP-92) was 19.5 µM (inactive) and the GI50 (HT-29) was 33 µM (inactive). The GI50 (Hs-578T) was 16.1 µM (inactive), the GI50 (IGROV-1) was 18.4 µM (inactive) and the GI50 (K562) was 22.8 µM (inactive). The GI50 (KM12) was 12.6 µM (inactive), the GI50 (LOX IMVI) was 13.5 µM (inactive) and the GI50 (M14) was 24.8 µM (inactive). The GI50 (MDA-MB-231) was 24.7 µM (inactive), the GI50 (MDA-MB-435) was 22.5 µM (inactive) and the GI50 (MDA-N) was 23.5 µM (inactive). For the same compound, the GI50 (MOLT-4) was 11.5 µM (inactive), the GI50 (Malme-3M) was 63.2 µM (inactive) and the GI50 (NCI-H226) was 21 µM (inactive). For the same compound, the GI50 (NCI-H23) was 27 µM (inactive), the GI50 (NCI-H460) was 17.1 µM (inactive) and the GI50 (NCI-H522) was 20.3 µM (inactive). The GI50 (NCI/ADR-RES) was 33.3 µM (inactive), the GI50 (OVCAR-3) was 17.4 µM (inactive) and the GI50 (OVCAR-4) was 18.7 µM (inactive). The GI50 (OVCAR-5) was 20.4 µM (inactive), the GI50 (OVCAR-8) was 25.4 µM (inactive) and the GI50 (PC-3) was 12 µM (inactive). For the same compound, the GI50 (RPMI-8226) was 18.6 µM (inactive), the GI50 (RXF 393) was 23.8 µM (inactive) and the GI50 (SF-268) was 18.5 µM (inactive). For the same compound, the GI50 (SF-295) was 14.5 µM (inactive), the GI50 (SF-539) was 21.3 µM (inactive) and the GI50 (SK-MEL-28) was 43.1 µM (inactive). For the same compound, the GI50 (SK-MEL-2) was 19.3 µM (inactive), the GI50 (SK-MEL-5) was 17.8 µM (inactive) and the GI50 (SK-OV-3) was 21.8 µM (inactive). The GI50 (SN12C) was 18.3 µM (inactive), the GI50 (SNB-19) was 16.4 µM (inactive) and the GI50 (SNB-75) was 25.4 µM (inactive). The GI50 (SR) was 33 µM (inactive), the GI50 (SW-620) was 17 µM (inactive) and the GI50 (T47D) was 28.2 µM (inactive). The GI50 (TK-10) was 5.02 µM (inactive), the GI50 (U-251) was 12.9 µM (inactive) and the GI50 (UACC-257) was 52.5 µM (inactive). For the same compound, the GI50 (UACC-62) was 18 µM (inactive) and the GI50 (UO-31) was 12.9 µM (inactive).

O=c1[nH]cnc2sc(=S)c3c(c12)CCC3 was tested, and the GI50 (786-0) was 15.5 µM (inactive), the GI50 (A549) was 68.7 µM (inactive) and the GI50 (ACHN) was 17.3 µM (inactive). The GI50 (CAKI-1) was 19.3 µM (inactive), the GI50 (CCRF-CEM) was 21 µM (inactive) and the GI50 (COLO 205) was 14.4 µM (inactive). The GI50 (DU-145) was 39 µM (inactive), the GI50 (EKVX) was 47.6 µM (inactive) and the GI50 (HCT-116) was 31.3 µM (inactive). The GI50 (HCT-15) was 29 µM, the GI50 (HL-60) was 22.2 µM (inactive) and the GI50 (HOP-62) was 52.2 µM (inactive). The GI50 (HOP-92) was 23.8 µM (inactive), the GI50 (HT-29) was 35.2 µM (inactive) and the GI50 (Hs-578T) was 48.5 µM (inactive). For the same compound, the GI50 (IGROV-1) was 15.8 µM (inactive), the GI50 (K562) was 12.2 µM (inactive) and the GI50 (KM12) was 51.5 µM (inactive). For the same compound, the GI50 (LOX IMVI) was 24.7 µM (inactive), the GI50 (M14) was 34.2 µM (inactive) and the GI50 (MCF7) was > 100 µM (inactive). For the same compound, the GI50 (MDA-MB-231) was 32.6 µM (inactive), the GI50 (MDA-MB-435) was 81.8 µM (inactive) and the GI50 (MOLT-4) was 11.7 µM (inactive). The GI50 (Malme-3M) was 37.2 µM (inactive), the GI50 (NCI-H226) was 20.8 µM (inactive) and the GI50 (NCI-H23) was 23.5 µM (inactive). For the same compound, the GI50 (NCI-H460) was 44.1 µM (inactive), the GI50 (NCI-H522) was 15.9 µM (inactive) and the GI50 (NCI/ADR-RES) was 36.9 µM (inactive). The GI50 (OVCAR-3) was 18.4 µM (inactive), the GI50 (OVCAR-4) was 33.5 µM (inactive) and the GI50 (OVCAR-5) was 47.8 µM (inactive). The GI50 (OVCAR-8) was 38.4 µM (inactive), the GI50 (PC-3) was 37 µM (inactive) and the GI50 (RPMI-8226) was 18 µM (inactive). The GI50 (RXF 393) was 21.9 µM (inactive), the GI50 (SF-268) was > 100 µM (inactive) and the GI50 (SF-295) was > 100 µM (inactive). The GI50 (SF-539) was > 100 µM (inactive), the GI50 (SK-MEL-28) was 40.1 µM (inactive) and the GI50 (SK-MEL-2) was > 100 µM (inactive). The GI50 (SK-MEL-5) was 17.8 µM (inactive), the GI50 (SK-OV-3) was > 100 µM (inactive) and the GI50 (SN12C) was > 100 µM (inactive). For the same compound, the GI50 (SNB-19) was 48.5 µM (inactive), the GI50 (SNB-75) was > 100 µM (inactive) and the GI50 (SR) was 12.1 µM (inactive). The GI50 (SW-620) was 21.6 µM (inactive), the GI50 (T47D) was 19.1 µM (inactive) and the GI50 (TK-10) was 25.2 µM (inactive). For the same compound, the GI50 (U-251) was > 100 µM (inactive), the GI50 (UACC-257) was 33.3 µM (inactive) and the GI50 (UACC-62) was 40.9 µM (inactive). For the same compound, the GI50 (UO-31) was 25.8 µM (inactive).
